Test results reported in paper PMC6832705, “Menthol Increases Bendiocarb Efficacy Through Activation of Octopamine Receptors and Protein Kinase A” (Molecules, 2019).

Biological target: T1, acetylcholinesterase (AChE)
T1 construct: gene ace1; native enzyme in collagenase-treated, dissociated terminal abdominal ganglia of males; not purified
Test: modified Ellman assay, absorbance […] nm
Format: biochemical, Periplaneta americana
Details: acetylthiocholine (0.1 mM stock), 15 min pre-incubation with bendiocarb, pH 7.2, 30 °C, no menthol; covalent; read-out: ED50 (the source's name)

Structure (SMILES): CNC(=O)Oc1cccc2c1OC(C)(C)O2 [bendiocarb]
- IC50: 100 nM
